{"source": "patent US7670416B2", "about": "“Use of a combination of substances to prevent biofouling organisms” (I-Tech AB, priority 2005, dated 2010)", "key": {"Barnacle cyprid larvae": {"test_system": "Barnacle cyprid larvae", "experiment": "cyprid settling rate assay (barnacle biofouling)", "type": "in vivo"}, "Enteromorpha": {"test_system": "Enteromorpha", "experiment": "algae spore germination test (Enteromorpha biofouling)", "type": "in vivo"}, "algae": {"test_system": "algae", "details": "reference (6); target protein lacking within algae; cited from earlier work"}, "Ulva": {"test_system": "Ulva", "experiment": "algae spore germination test (Ulva biofouling);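 note: ulva spores exposed to test compound, then compound removed and spores germinated in culture medium under fluorescent light, 16 h light and 8 h dark, for 7 days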"}, "barnacle cyprids": {"test_system": "barnacle cyprids", "details": "reference (6); cited from earlier work"}, "[1]": {"details": "0.1 nM Catemine 1 alone (Table 2)"}, "[2]": {"details": "0.1 nM Catemine 1 alone (Table 4)"}, "[3]": {"details": "1 nM Catemine 1 alone (Table 2)"}, "[4]": {"details": "1 nM Catemine 1 alone (Table 4)"}, "[5]": {"details": "10 nM Catemine 1 alone (Table 2)"}, "[6]": {"details": "10 nM Catemine 1 alone (Table 4)"}, "[7]": {"details": "100 nM Catemine 1 alone (Table 2)"}, "[8]": {"details": "100 nM Catemine 1 alone (Table 4)"}}}
{"smiles": "Cc1cccc(C(C)c2c[nH]cn2)c1C", "note": "(racemic) [Catemine 1, (+/−)-4-[1-(2,3-dimethylphenyl)ethyl]-1H-imidazole]", "values": [{"measurement": "Barnacle biofouling (% settlement)", "setting": "Barnacle cyprid larvae; 0.1 nM Catemine 1 alone", "result": 100, "unit": "%"}, {"measurement": "Barnacle biofouling (% settlement)", "setting": "Barnacle cyprid larvae; [1]", "result": 100, "unit": "%"}, {"measurement": "Barnacle biofouling (% settlement)", "setting": "Barnacle cyprid larvae; 0.1 nM Catemine 1 alone (Table 3)", "result": 100, "unit": "%"}, {"measurement": "Barnacle biofouling (% settlement)", "setting": "Barnacle cyprid larvae; [2]", "result": 100, "unit": "%"}, {"measurement": "Barnacle biofouling (% settlement)", "setting": "Barnacle cyprid larvae; 1 nM Catemine 1 alone", "result": 10, "unit": "%"}, {"measurement": "Barnacle biofouling (% settlement)", "setting": "Barnacle cyprid larvae; [3]", "result": 10, "unit": "%"}, {"measurement": "Barnacle biofouling (% settlement)", "setting": "Barnacle cyprid larvae; 1 nM Catemine 1 alone (Table 3)", "result": 10, "unit": "%"}, {"measurement": "Barnacle biofouling (% settlement)", "setting": "Barnacle cyprid larvae; [4]", "result": 10, "unit": "%"}, {"measurement": "Barnacle biofouling (% settlement)", "setting": "Barnacle cyprid larvae; 10 nM Catemine 1 alone", "result": 0, "unit": "%"}, {"measurement": "Barnacle biofouling (% settlement)", "setting": "Barnacle cyprid larvae; [5]", "result": 0, "unit": "%"}, {"measurement": "Barnacle biofouling (% settlement)", "setting": "Barnacle cyprid larvae; 10 nM Catemine 1 alone (Table 3)", "result": 0, "unit": "%"}, {"measurement": "Barnacle biofouling (% settlement)", "setting": "Barnacle cyprid larvae; [6]", "result": 0, "unit": "%"}, {"measurement": "Barnacle biofouling (% settlement)", "setting": "Barnacle cyprid larvae; 100 nM Catemine 1 alone", "result": 0, "unit": "%"}, {"measurement": "Barnacle biofouling (% settlement)", "setting": "Barnacle cyprid larvae; [7]", "result": 0, "unit": "%"}, {"measurement": "Barnacle biofouling (% settlement)", "setting": "Barnacle cyprid larvae; 100 nM Catemine 1 alone (Table 3)", "result": 0, "unit": "%"}, {"measurement": "Barnacle biofouling (% settlement)", "setting": "Barnacle cyprid larvae; [8]", "result": 0, "unit": "%"}, {"measurement": "Enteromorpha biofouling (% survival)", "setting": "Enteromorpha; 0.1 nM Catemine 1 alone", "result": 100, "unit": "%"}, {"measurement": "Enteromorpha biofouling (% survival)", "setting": "Enteromorpha; 1 nM Catemine 1 alone", "result": 100, "unit": "%"}, {"measurement": "Enteromorpha biofouling (% survival)", "setting": "Enteromorpha; 10 nM Catemine 1 alone", "result": 100, "unit": "%"}, {"measurement": "Enteromorpha biofouling (% survival)", "setting": "Enteromorpha; 100 nM Catemine 1 alone", "result": 100, "unit": "%"}, {"measurement": "effect of algal growth", "setting": "algae", "result": "no effect"}, {"measurement": "Ulva biofouling (% survival)", "setting": "Ulva; 0.1 nM Catemine 1 alone", "result": 100, "unit": "%"}, {"measurement": "Ulva biofouling (% survival)", "setting": "Ulva; [1]", "result": 100, "unit": "%"}, {"measurement": "Ulva biofouling (% survival)", "setting": "Ulva; [2]", "result": 100, "unit": "%"}, {"measurement": "Ulva biofouling (% survival)", "setting": "Ulva; 1 nM Catemine 1 alone", "result": 100, "unit": "%"}, {"measurement": "Ulva biofouling (% survival)", "setting": "Ulva; [3]", "result": 100, "unit": "%"}, {"measurement": "Ulva biofouling (% survival)", "setting": "Ulva; [4]", "result": 100, "unit": "%"}, {"measurement": "Ulva biofouling (% survival)", "setting": "Ulva; 10 nM Catemine 1 alone", "result": 100, "unit": "%"}, {"measurement": "Ulva biofouling (% survival)", "setting": "Ulva; [5]", "result": 100, "unit": "%"}, {"measurement": "Ulva biofouling (% survival)", "setting": "Ulva; [6]", "result": 100, "unit": "%"}, {"measurement": "Ulva biofouling (% survival)", "setting": "Ulva; 100 nM Catemine 1 alone", "result": 100, "unit": "%"}, {"measurement": "Ulva biofouling (% survival)", "setting": "Ulva; [7]", "result": 100, "unit": "%"}, {"measurement": "Ulva biofouling (% survival)", "setting": "Ulva; [8]", "result": 100, "unit": "%"}, {"measurement": "action on barnacle cyprids", "setting": "barnacle cyprids", "result": "specific action"}]}
{"smiles": "CN(C)S(=O)(=O)N(SC(F)(Cl)Cl)c1ccccc1", "note": "[Dichlofluanid, N′-dimethyl-N-phenylsulphamide]", "values": [{"measurement": "Barnacle biofouling (% settlement)", "setting": "Barnacle cyprid larvae; 0.1 μg/ml Dichlofluanid alone", "result": 100, "unit": "%"}, {"measurement": "Barnacle biofouling (% settlement)", "setting": "Barnacle cyprid larvae; 1 μg/ml Dichlofluanid alone", "result": 50, "unit": "%"}, {"measurement": "Barnacle biofouling (% settlement)", "setting": "Barnacle cyprid larvae; 10 μg/ml Dichlofluanid alone", "result": 25, "unit": "%"}, {"measurement": "Barnacle biofouling (% settlement)", "setting": "Barnacle cyprid larvae; 100 μg/ml Dichlofluanid alone", "result": 0, "unit": "%"}, {"measurement": "Ulva biofouling (% survival)", "setting": "Ulva; 0.1 μg/ml Dichlofluanid alone", "result": 100, "unit": "%"}, {"measurement": "Ulva biofouling (% survival)", "setting": "Ulva; 1 μg/ml Dichlofluanid alone", "result": 90, "unit": "%"}, {"measurement": "Ulva biofouling (% survival)", "setting": "Ulva; 10 μg/ml Dichlofluanid alone", "result": 10, "unit": "%"}, {"measurement": "Ulva biofouling (% survival)", "setting": "Ulva; 100 μg/ml Dichlofluanid alone", "result": 0, "unit": "%"}]}
{"smiles": "CN(C)C(=O)Nc1ccc(Cl)c(Cl)c1", "note": "[Diuron, 3-(3,4-dichlorophenyl)-1,1-dimethylurea]", "values": [{"measurement": "Barnacle biofouling (% settlement)", "setting": "Barnacle cyprid larvae; 0.1 μM Diuron alone", "result": 100, "unit": "%"}, {"measurement": "Barnacle biofouling (% settlement)", "setting": "Barnacle cyprid larvae; 1 μM Diuron alone", "result": 100, "unit": "%"}, {"measurement": "Barnacle biofouling (% settlement)", "setting": "Barnacle cyprid larvae; 10 μM Diuron alone", "result": 100, "unit": "%"}, {"measurement": "Barnacle biofouling (% settlement)", "setting": "Barnacle cyprid larvae; 100 μM Diuron alone", "result": 100, "unit": "%"}, {"measurement": "Ulva biofouling (% survival)", "setting": "Ulva; 0.1 μM Diuron alone", "result": 100, "unit": "%"}, {"measurement": "Ulva biofouling (% survival)", "setting": "Ulva; 1 μM Diuron alone", "result": 90, "unit": "%"}, {"measurement": "Ulva biofouling (% survival)", "setting": "Ulva; 10 μM Diuron alone", "result": 50, "unit": "%"}, {"measurement": "Ulva biofouling (% survival)", "setting": "Ulva; 100 μM Diuron alone", "result": 0, "unit": "%"}]}
{"smiles": "CSc1nc(NC2CC2)nc(NC(C)(C)C)n1", "note": "[Irgarol, 2-methylthio-4-tert-butylamino-6-cyclopropylamino-s-triziane]", "values": [{"measurement": "Barnacle biofouling (% settlement)", "setting": "Barnacle cyprid larvae; 0.1 nM Irgarol alone", "result": 100, "unit": "%"}, {"measurement": "Barnacle biofouling (% settlement)", "setting": "Barnacle cyprid larvae; 1 nM Irgarol alone", "result": 100, "unit": "%"}, {"measurement": "Barnacle biofouling (% settlement)", "setting": "Barnacle cyprid larvae; 10 nM Irgarol alone", "result": 100, "unit": "%"}, {"measurement": "Barnacle biofouling (% settlement)", "setting": "Barnacle cyprid larvae; 100 nM Irgarol alone", "result": 100, "unit": "%"}, {"measurement": "Enteromorpha biofouling (% survival)", "setting": "Enteromorpha; 0.1 nM Irgarol alone", "result": 100, "unit": "%"}, {"measurement": "Enteromorpha biofouling (% survival)", "setting": "Enteromorpha; 1 nM Irgarol alone", "result": 100, "unit": "%"}, {"measurement": "Enteromorpha biofouling (% survival)", "setting": "Enteromorpha; 10 nM Irgarol alone", "result": 50, "unit": "%"}, {"measurement": "Enteromorpha biofouling (% survival)", "setting": "Enteromorpha; 100 nM Irgarol alone", "result": 0, "unit": "%"}]}
{"smiles": "CCCCCCCCn1sc(Cl)c(Cl)c1=O", "note": "[SeaNine, 4,5-dichloro-2-n-octyl-3(2H)-isothiazolone]", "values": [{"measurement": "Barnacle biofouling (% settlement)", "setting": "Barnacle cyprid larvae; 0.1 nM SeaNine alone", "result": 100, "unit": "%"}, {"measurement": "Barnacle biofouling (% settlement)", "setting": "Barnacle cyprid larvae; 1 nM SeaNine alone", "result": 50, "unit": "%"}, {"measurement": "Barnacle biofouling (% settlement)", "setting": "Barnacle cyprid larvae; 10 nM SeaNine alone", "result": 10, "unit": "%"}, {"measurement": "Barnacle biofouling (% settlement)", "setting": "Barnacle cyprid larvae; 100 nM SeaNine alone", "result": 0, "unit": "%"}, {"measurement": "Ulva biofouling (% survival)", "setting": "Ulva; 0.1 nM SeaNine alone", "result": 100, "unit": "%"}, {"measurement": "Ulva biofouling (% survival)", "setting": "Ulva; 1 nM SeaNine alone", "result": 50, "unit": "%"}, {"measurement": "Ulva biofouling (% survival)", "setting": "Ulva; 10 nM SeaNine alone", "result": 10, "unit": "%"}, {"measurement": "Ulva biofouling (% survival)", "setting": "Ulva; 100 nM SeaNine alone", "result": 0, "unit": "%"}]}
